Results published in patent US10370368B2, “Aryl acylsulfonamides as BLT1 antagonists” (Merck Sharp & Dohme Corp., priority 2015, dated 2019).

Molecular target: human BLT1 receptor (Homo sapiens (Human), UniProt Q15722)
Experiment: BLT-1 cAMP Assay
Type: cell-based
Details: antagonist mode; HEK293 cells recombinantly expressing human BLT1 receptor; forskolin 4 μM and LTB4 2 nM
Protocol: The ability of compounds to antagonize the human BLT1 receptor was determined using a kit to measure changes in intracellular cyclic AMP levels (cAMP dynamic assay kit, Cisbio Cat. No. 62AM4PEC). HEK293 cells recombinantly expressing human BLT1 receptor, previously frozen in Recovery Medium (Life Technologies, Cat. No. 12648-010) were thawed and diluted into assay medium (HBSS (Hyclone SH 30268.01), 20 mM HEPES (Gibco 15630-106), 800 μM IBMX (Sigma 15879), 0.1% DTPA BSA (Perkin Elmer CR84-100)). The cell suspension was centrifuged at 200×g for 10 min and then resuspended in fresh assay medium to a density of 2.5×10^5 cells/mL. A Labcyte Echo 550 acoustic dispenser was used to transfer 25 nL of test compound dissolved in DMSO into the wells of a dry 384-well plate (Greiner 784075). All subsequent liquid additions were performed using a BIORAPTR (FRD; Beckman Coulter). Next, 5 μL of cell suspension was added and incubated for 20 min. at 37° C. and 5% CO2 in a humidified plastic tray. To test for agonist activity 5 μL of assay buffer containing forskolin (Sigma F-6886. 4 μM for BLT1) was added and incubated for 30 minutes at 37° C. and 5% CO2 in a humidified plastic tray. To test for antagonist activity 5 μL of assay buffer containing forskolin (Sigma F-6886. 4 μM for BLT1) and either LTB4 (Sigma Aldrich L0517; 2 nM BLT1) was added and incubated for 30 minutes at 37° C. and 5% CO2 in a humidified plastic tray.
The levels of cAMP were detected using the CisBio kit following the manufacturer's instructions: cAMP-d2 vial was reconstituted with distilled water and then diluted accordingly with conjugate & lysis buffer. 5 μL of cAMP-d2 working solution was added to all of the wells of the assay plate. cAMP-Cryptate vial was reconstituted with distilled water and then diluted accordingly with conjugate & lysis buffer. 5 μL of cAMP-Cryptate working solution were added to the assay plate. The assay plate was shaken for 3 minutes and incubated at room temperature for 45 minutes, then read on Perkin Elmer Envision. cAMP standard curve and fit data were plotted using a 4 parameter dose response curve fitting algorithm to fit curve. A 4-parameter curve fit (Max, min, log EC50 and slope) was used to transform fluorescent 665 nm/615 nm ratio signal to cAMP concentration. After normalization to treated and untreated controls, the percent effect of signal at each compound concentration was calculated. The plot of percent effect versus the log of compound concentration was fit with a 4-parameter concentration response equation to calculate EC50 values. Compound concentrations tested were 10 000, 3 333, 1 111, 370.4, 123.4, 41.2, 13.7, 4.6, 1.5 and 0.5 nM with 0.25% residual DMSO.

Chain of human BLT1 receptor (Q15722 whole entry): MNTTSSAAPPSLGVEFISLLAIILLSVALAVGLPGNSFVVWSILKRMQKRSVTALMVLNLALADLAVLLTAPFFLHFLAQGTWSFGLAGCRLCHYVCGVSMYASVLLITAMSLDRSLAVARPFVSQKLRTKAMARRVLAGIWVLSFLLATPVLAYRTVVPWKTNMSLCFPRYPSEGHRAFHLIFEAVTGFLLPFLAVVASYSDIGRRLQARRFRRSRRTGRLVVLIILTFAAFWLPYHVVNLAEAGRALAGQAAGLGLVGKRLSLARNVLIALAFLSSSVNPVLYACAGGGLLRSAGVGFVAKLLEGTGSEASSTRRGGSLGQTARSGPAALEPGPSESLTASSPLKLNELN

Row | SMILES | EC50 [nM]
1 | CC(C)(C)S(=O)(=O)NC(=O)c1ccccc1-c1ccc2c(c1)OC[C@@H](Cc1ccc(-c3cncs3)cn1)[C@@H]2O (racemic) [Example 4, N-(tert-Butylsulfonyl)-2-((rac-trans)-4-hydroxy-3-((5-(thiazol-5-yl)pyridin-2-yl)methyl)chroman-7-yl)benzamide] | 8
2 | CC1(S(=O)(=O)NC(=O)c2ccccc2-c2ccc3c(c2)OC[C@H](Cc2ccc(-c4cncs4)cn2)[C@H]3O)CC1 (single isomer, unassigned) [Example 2, 2-((3S, 4R or 3R, 4S)-4-Hydroxy-3-((5-(thiazol-5-yl)pyridin-2-yl)methyl)chroman-7-yl)-N-((1-methylcyclopropyl)sulfonyl)benzamide] | 6
3 | CC1(S(=O)(=O)NC(=O)c2ccccc2-c2ccc3c(c2)OC[C@@H](Cc2ccc(-c4cncs4)cn2)[C@@H]3O)CC1 (single isomer, unassigned) [Example 3, 2-((3R, 4S or 3S, 4R)-4-Hydroxy-3-((5-(thiazol-5-yl)pyridin-2-yl)methyl)chroman-7-yl)-N-((1-methylcyclopropyl)sulfonyl)benzamide] | 78
4 | CC(C)(C)S(=O)(=O)NC(=O)c1ccccc1-c1ccc2c(c1)OC[C@H](Cc1ccc(-c3cncs3)cn1)[C@H]2O (single isomer, unassigned) [Example 5, N-(tert-Butylsulfonyl)-2-((3S, 4R or 3R, 4S)-4-hydroxy-3-((5-(thiazol-5-yl)pyridin-2-yl)methyl)chroman-7-yl)benzamide] | 5
5 | CC1(S(=O)(=O)NC(=O)c2ccccc2-c2ccc3c(c2)OC[C@@H](Cc2ccc(-c4cncs4)cn2)[C@@H]3O)CC1 [Example 1, 2-((Rac-trans)-4-Hydroxy-3-((5-(thiazol-5-yl)pyridin-2-yl)methyl)chroman-7-yl)-N-((1-methylcyclopropyl)sulfonyl)benzamide] | 6

Next, values leading:

Row | EC50 [nM] | SMILES
6 | 5 | Cc1ncc(-c2ccc(C[C@@H]3COc4cc(-c5ccccc5C(=O)NS(=O)(=O)C(C)(C)C)ccc4[C@H]3O)nc2)s1 (racemic) [Example 7, N-(tert-Butylsulfonyl)-2-((rac-trans)-4-hydroxy-3-((5-(2-methylthiazol-5-yl)pyridin-2-yl)methyl)chroman-7-yl)benzamide]
7 | 12 | O=C(NS(=O)(=O)C1CC1)c1ccccc1-c1ccc2c(c1)OC[C@@H](Cc1ccc(-c3cncs3)cn1)[C@@H]2O (racemic) [Example 8, N-(Cyclopropylsulfonyl)-2-((rac-trans)-4-hydroxy-3-((5-(thiazol-5-yl)pyridin-2-yl)methyl)chroman-7-yl)benzamide]
8 | 9 | Cc1ncc(-c2ccc(C[C@@H]3COc4cc(-c5ccccc5C(=O)NS(=O)(=O)C5CC5)ccc4[C@H]3O)nc2)s1 (racemic) [Example 9, N-(Cyclopropylsulfonyl)-2-((rac-trans)-4-hydroxy-3-((5-(2-methylthiazol-5-yl)pyridin-2-yl)methyl)chroman-7-yl)benzamide]
9 | 128 | CC(C)(C)S(=O)(=O)NC(=O)c1ccccc1-c1ccc2c(c1)OC[C@@H](Cc1ccc(-c3cncs3)cn1)[C@@H]2O (single isomer, unassigned) [Example 6, N-(tert-Butylsulfonyl)-2-((3R, 4S or 3S, 4R)-4-hydroxy-3-((5-(thiazol-5-yl)pyridin-2-yl)methyl)chroman-7-yl)benzamide]
10 | 6 | Cc1ncc(-c2ccc(C[C@H]3COc4cc(-c5ccccc5C(=O)NS(=O)(=O)C5CC5)ccc4[C@@H]3O)nc2)s1 (single isomer, unassigned) [Example 10, N-(Cyclopropylsulfonyl)-2-((3S,4R or 3R,4S)-4-hydroxy-3-((5-(2-methylthiazol-5-yl)pyridin-2-yl)methyl)chroman-7-yl)benzamide]
11 | 391 | Cc1ncc(-c2ccc(C[C@@H]3COc4cc(-c5ccccc5C(=O)NS(=O)(=O)C5CC5)ccc4[C@H]3O)nc2)s1 (single isomer, unassigned) [Example 11, N-(Cyclopropylsulfonyl)-2-((3R,4S or 3S,4R)-4-hydroxy-3-((5-(2-methylthiazol-5-yl)pyridin-2-yl)methyl)chroman-7-yl)benzamide]
